The conditions of data set [1]: rats, intraperitoneal injection; cited from earlier work.
In a further data set the test system is ACAT1. The data set is described as follows: ACAT1 mRNA level by qPCR in infected Huh7.5.1 cells. The settings on record: naringenin 24 hours. It is filed as cell-based, human. On the technique in general: Quantitative PCR measures a nucleic acid by following its amplification.
A short description of data set [2]: Intraperitoneal injection of naringenin to SCID mice: survival, liver enzymes, triglycerides. The format is in vivo. The protocol:
Male SCID mice (8 weeks old, 20-25 g) were obtained from Charles River Laboratories (Wilmington, Mass.). Animals were treated in accordance with NIH guidelines, and MGH Subcommittee on Research Animal Care. The mice were allowed free access to laboratory chow and water ad labium. Naringenin was dissolved in 0.5% Tween 20 diluted in saline and given by intraperitoneal injection. Two days following the treatment, animals were sacrificed and blood was withdrawn by cardiac puncture. AST and ALT enzyme levels were assessed as described above. Total triglycerides were measured using a kit purchased from Sigma-Aldrich Chemicals (St. Louis, Mo.) according to the manufacturer's instructions.
To assess naringenin ability to reduce circulating vLDL levels we measured total triglycerides levels in animal plasma.

The test system of a further data set is LXRα. The data set is described as follows: LXRα transcription in infected Huh7.5.1 cells. It is filed as cell-based, human. Particulars: short term 24 hours stimulation of Huh7.5.1 cells. As for the experimental part:
(§1) Virus samples collected in each experiment were filtered with a 0.45 μm filter and a volume of 100 μL for each sample was heated at 95° C. for 45 min. The reverse transcription reaction step was performed on a Mastercycler epgrdientS (Eppendorf) instrument using Omniscript and Sensiscript RT Kits (Qiagen). Real time PCR was performed on a Light Cycler LC-24 (Idaho Technology), using SuperScript™ III Platinum® CellsDirect Two-Step qRT-PCR Kits (Invitrogen) for quantitative PCR. For reverse transcription step, 2 μL of sample without RNA extraction were used. For real time PCR, 1 μL of the reverse transcription reactions was used. All reactions were performed according to the manufacturer's instructions using the primers detailed in Table 1.
PPARα and LXRα are ligand-activated transcription factors which control much of the fasted-to-fed transition and were previously shown to be important in the development of inflammation and insulin resistance. […] Following a short term 24 hours stimulation of Huh7.5.1 cells PPARα transcription increased by 86%, while LXRα was decreased by 25%. PPARα is the target of fibrates and plays a major role in the downregulation of inflammation, increasing sensitivity to insulin, and modulating dyslipidemia.

For data set [3] the following is noted: 400 mg/day oral, hypercholesterolemic patients; cited from earlier work.
Data set [4] deals with primary human hepatocytes.
The conditions of data set [5]: guinea pigs, intraperitoneal injection; cited from earlier work.
Another data set has as its system ACAT2. The data set is described as follows: ACAT2 transcription by qPCR in infected Huh7.5.1 cells. The format is cell-based, human. The settings on record: naringenin 24 hours, infected Huh-7.5.1 cells.
Data set [6] concerns HCV (JFH-1) secreted by infected Huh-7.5.1 cells. Nature of the data set: HCV secretion by JFH-1 infected Huh-7.5.1 cells (HCV core antigen ELISA, HCV positive strand RNA qPCR). The format is cell-based, Hepatitis C virus. As for the experimental part:
The Huh-7.5.1 human hepatoma cell line and a plasmid containing the JFH-1 genome were kindly provided by Dr. Chisari (Scripps Research Institute, CA) and Dr. Wakita (National Institute of Infectious Diseases, Tokyo) respectively. Huh-7.5.1 cells were cultured in DMEM medium supplemented with 10% FBS, 200 units/ml penicillin and […] streptomycin in a 5% CO2-humidified incubator at 37° C. In vitro transcribed genomic JFH-1 RNA was delivered to cells by liposome-mediated transfection as described by Zhong et al. (2005)(8). Infected Huh-7.5.1 cells were passaged every 3 days and used at passage <15. The presence of HCV in these cells and corresponding supernatants were determined by quantitative Polymerase Chain Reaction (qPCR) and immunofluorescence staining. Primary human hepatocytes were purchased from BD Biosciences (San Jose, Calif.) cultured on a collagen-coated 12 well plate in C+H culture media composed of DMEM supplemented with 10% heat-inactivated FBS, 200 U/mL penicillin/streptomycin, 7.5 μg/mL hydrocortisone, 20 ng/mL EGF, 14 ng/mL glucagons and 0.5 U/mL insulin. The media was supplemented with 2% DMSO for long-term culture of the primary cells.
HCV-infected Huh-7.5.1 cells were plated on a 6-well plate at a density of 1×10^5 cells/cm^2 and cultured overnight in standard medium. Prior to the beginning of the experiment, the cells were washed 3 times with PBS and cultured with DMEM containing 5% lipoprotein-free FBS. Oleate, Insulin, Naringenin, and Brefeldin A were added at this time as described in the text. Following 24 hours of incubation, the plate was gently agitated to release mechanically bound particles, the media was collected, filtered to remove cellular debris, and stored at −80° C. for further analysis. The attached cells were washed 3 times with PBS, harvested, pelleted and stored at −80° C. for further analysis.
Huh-7.5.1 secreted HCV core antigen was detected in the media using Wako Chemicals (Cambridge, Mass.) ORTHO HCV antigen ELISA kit. Media was used as is, and the assay was carried out according to manufacturer's directions.
as §1
However, this experiment was carried out on cells continuously producing the virus. Long-term treatment could potentially have a greater effect. […] This treatment is compared to the current standard-of-care, 1000 i.u. of Interferon α (IFNα). Both treatments lowered HCV RNA to a similar level, 96±5% and 93±5% respectively.

[7] abbreviates: 24 hours, brefeldin A 2.5 μg/ml.

The values that follow come from patent US20160228575A1, “NARINGENIN COMPLEXES AND METHODS OF USE THEREOF” (THE GENERAL HOSPITAL CORPORATION, priority 2008, published 2016).

“Also recorded” adds a separate entry of the source. Like-named read-outs stand apart in the source and are kept apart here.

For orientation: inhibition means the percentage by which the read-out fell short of the control. As to `O=C1C[C@@H](c2ccc(O)cc2)Oc2cc(O)cc(O)c21` [naringenin], the “LD50 (50% kill)” value in data set [1] is 2000 mg/kg. Also, the “ACAT1 mRNA level” value in the data set on ACAT1 was “remained unchanged”. For the same compound, in data set [2] (48 hrs following i.p. injection, all doses), the “ALT levels in plasma” value was “no elevation”. The “AST levels in plasma” value in data set [2] (48 hrs following i.p. injection, even at the highest dose (1500 mg/kg)) is reported as “under 100 U/l”. The “total triglycerides in animal plasma” value in data set [2] (following i.p. naringenin injection) was “decrease”. For the same compound, the animal survival result in [2] (intraperitoneal injection, 60, 300, 1500 mg/kg, male SCID mice) is “not affected; also recorded: did not cause death”. Also, the “decrease of LXRα transcription” value in the data set on LXRα is 25%. Besides, the “lowering of LDL levels” value in data set [3] is given as 17%. Moreover, in [4] (24 hours exposure), the “concentration up to which naringenin is non-toxic to freshly isolated human hepatocytes” value is reported as “greater than 1000 μM” and the “naringenin concentration above which human hepatocyte viability dropped significantly” value is “greater than 1000 μl”. Further, the human hepatocyte viability in data set [4] (human, 24 h, 200 μM) was 81%±3%. Also, the “LD50 (50% kill)” value in data set [5] was 2000 mg/kg. In addition, the “reduction of ACAT2 transcription” value with ACAT2 is recorded as 55%±7%. Also, the “effective dose of naringenin in cell culture” value in data set [6] amounted to 0.20 mM. In addition, in [6] (setting [7]), the “HCV core protein secretion (in words)” value is given as “inhibits” and the “HCV positive strand RNA secretion (in words)” value was “inhibits”. In data set [6] (Hepatitis C virus, 200 μM naringenin, short-term (24 hrs), infected Huh-7.5.1 cells), 200 µM produced 80% inhibition. The “inhibition of HCV (RNA) secretion, long-term treatment” value in data set [6] (long-term daily treatment of infected Huh7.5.1 cells, naringenin 200 μM, IFNα 1000 i.u.) was 96±5%.
